Test system: CB-1 receptor
Experiment: CB-1 receptor binding ([3H]SR141716A displacement)
Conditions: rat or human CB-1 protocol not specified; kind of value (Ki/IC50) not stated
Procedure: Compounds having an activity <20 nM are generally tested in the CB-1 GTPγ [^35S] Binding Assay and the CB-2 binding assay described below in the Biological Binding Assays section. Selected compounds are then tested in vivo using one or more of the functional assays described in the Biological Functional Assays section below. The compounds in the Examples above provided a range of CB-1 receptor binding activities from 0.1 to 500 nM.
The following assays were designed to detect compounds that inhibit the binding of [^3H] SR141716A (selective radiolabeled CB-1 ligand) and [^3H]5-(1,1-dimethylheptyl)-2-[5-hydroxy-2-(3-hydroxypropyl)-cyclohexyl]-phenol; radiolabeled CB-1/CB-2 ligand) to their respective receptors. […]
The test compounds were diluted in drug buffer (0.5% BSA, 10% DMSO and TME) and then 25 μl were added to a deep well polypropylene plate. […] In the morning the filters were counted on a Wallac Betaplate™ counter (available from PerkinElmer Life Sciences™, Boston, Mass.). […]
The test compounds were diluted in drug buffer (0.5% BSA, 10% DMSO and TME) and then 25 μl were added to a deep well polypropylene plate. […] In the morning the filters were counted on a Wallac Betaplate™ counter (available from PerkinElmer Life Sciences™, Boston, Mass.).

CNC1CCCOc2c1nn(-c1ccccc1Cl)c2-c1ccc(Cl)cc1 (stereo not shown) [Example 1C]
CB-1 receptor binding activity: 47 nM

Source: US20060241100A1, “Acylaminobicyclic heteroaromatic compounds and uses thereof” (Pfizer Inc, priority 2005, published 2006)
